Assay results taken from patent US20200268832A1, “COMPOSITIONS FOR DELIVERY TO AND TREATMENT OF ATHEROSCLEROTIC PLAQUES” (Sanford Burnham Prebys Medical Discovery Institute, priority 2015, published 2020).
Entries after “also recorded” stand apart in the source; their conditions may differ.

Columns and labels:
[1] = biological target: T1, p32 protein (Homo sapiens, UniProt Q07021); assay: NMR 1D 1H-aliph spectra of p32 with compounds; format: binding; conditions: 5 μM p32; compounds 100 and 500 μM; TT1 70 μM
T1 construct: 6xHis; host or cells: Rosetta-gami-2 cells (Novagen); an E. coli strain by own knowledge
T1 sequence (Q07021 74-282): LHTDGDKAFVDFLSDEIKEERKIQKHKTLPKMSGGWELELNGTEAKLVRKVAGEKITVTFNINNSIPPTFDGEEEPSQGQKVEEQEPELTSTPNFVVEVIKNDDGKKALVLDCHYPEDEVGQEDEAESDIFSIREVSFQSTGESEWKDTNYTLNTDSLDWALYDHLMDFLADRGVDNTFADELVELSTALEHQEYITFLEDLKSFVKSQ
Procedure: FIGS. 3A and 3B are graphs showing NMR based evaluation of binding of compounds 4014008 and 7933989 to P32 protein. The ID ^1H-aliph spectra of 5 μM P32 in the absence (bottom) and presence of compounds #4014008 (A) and #7933989 (B) at 100 μM (second from bottom) and 500 μM (second from top) were collected. As a control, the spectrum of p32 in the presence of the known peptide binder, TT1 at 70 μM, was also collected (top).
All the NMR experiments were carried out on a Bruker Avance 700 spectrometer equipped with a TCI cryoprobe at T=293 K. For structure determinations, the peptide concentration was 100 μM in the NMR buffer in presence of 150 μM of ZnCl2. One-dimensional (1D) 1H spectra were acquired with a spectral width of 8417.51 Hz, relaxation delay 1.0 s, 8 k data points for acquisition and 16 k for transformation.

[2] = biological target: T2, b1b2 domain of NRP-1 (Homo sapiens, UniProt O14786); assay: Fluorescence polarization displacement of FAM-RPARPAR from NRP-1; format: binding; conditions: specificity assay, up to 100 μM
T2 sequence (O14786 273-586 limits assumed): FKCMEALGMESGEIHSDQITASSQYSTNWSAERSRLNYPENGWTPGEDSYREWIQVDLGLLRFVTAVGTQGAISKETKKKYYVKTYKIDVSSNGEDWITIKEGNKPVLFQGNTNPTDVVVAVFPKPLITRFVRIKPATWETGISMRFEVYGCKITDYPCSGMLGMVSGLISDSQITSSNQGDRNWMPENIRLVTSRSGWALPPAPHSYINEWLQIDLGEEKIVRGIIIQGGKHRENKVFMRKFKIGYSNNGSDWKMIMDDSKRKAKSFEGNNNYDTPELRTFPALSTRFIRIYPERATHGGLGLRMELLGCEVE
Procedure: Results of the high-throughput screen were confirmed in dose response tests. 8.25 μM to 100 μM dilutions of the compounds that displaced FAM-peptide from p32 were used in competition with FAM-peptide as described in previous section. Specificity of the hit compounds was verified by examining their binding to a different protein, b1b2 domain of NRP-1 (Vander Kooi et al., Proc. Natl. Acad. Sci. U.S.A., 10.1073/pnas.0700043104). Experimental method for NRP-1 b1b2 was developed and validated similarly to p32, using FAM-RPARPAR peptide as a known peptide ligand for NRP-1. The displacement of FAM-RPARPAR from NRP-1 protein by the hit compounds was studied in 384-well format, as described above.

[3] = biological target: T1, p32 protein; assay: TT1 phage binding inhibition assay (ELISA-type); conditions: 100 μM compound
Procedure: The binding of individual phage to p32 was verified using ELISA-type of phage binding assay. 96-well plates (Corning Life Sciences, Tewksbury, Mass., USA) were coated with 100 μL of 5 μg/mL p32 in PBS at 4° C. overnight, washed 3 times with 200 μL of PBST (PBS+0.05% Tween-20), blocked with 200 μL of 0.5% bovine serum albumin (BSA) in PBST for 1 h at 37° C., and washed 3 times with PBST. Phages (1.11*10^8 pfu in 100 μL PBST) were added to p32-coated/BSA-blocked wells, the plate was incubated at 4° C. overnight, and washed 3 times with PBST. Subsequently, the plates were incubated with 100 μL in-house prepared polyclonal rabbit anti-T7 antibody diluted 1:1000 in PBST for 1 h at 4° C., and washed 3 times with washing buffer. Horseradish peroxidase (HRP)-labeled anti-rabbit IgG (Sigma-Aldrich) was diluted 1:1000 in PBS, and 100 μL was added to the wells, followed by 1 h incubation at 4° C. and washing 3 times. Next, 100 μL of OPD silver and gold substrate (Sigma-Aldrich) was added to the wells and incubated at room temperature until visible color was observed (<30 min). The reaction was stopped by adding 50 μL of 1M H2SO4, and the plate was read at 492 nm (Varioskan Flash, Thermo Scientific, Waltham, Mass., USA).
The ability to inhibit TT1-phage binding to p32 protein was used as a secondary assay to verify the hit compounds. The competition assay was based on the phage binding assay described above with minor modifications. ELISA plates were coated with 2.5 μg/mL p32, incubated with phages (1.11*10^8 pfu in 100 μL PBST) and 100 μM hit compounds at 4° C. overnight, and followed by antibody incubation and chromogenic reaction. Negative controls included DMSO at concentration it was used to dissolve the hit compounds.

## Cc1cnccc1NCCN [Compound 4014008, N-(3-methylpyridin-4-yl)ethane-1,2-diamine]
[1]
  perturbations in 1D 1H-aliphatic spectra of p32: caused similar perturbations; also recorded: shift in the peak at around −0.3 ppm
[2]
  effect on RPARPAR peptide binding to NRP-1: no effect
[3]
  inhibition at 100 µM: 50%
